Reference: article PMC4676410 (Journal of medicinal chemistry, 2015)
“And” between values parts separate entries of the source, which are not always exact repeats. Identical values can stand only once. Like-named read-outs stand apart in the source and are kept apart here.

Key:
A-MLV = experiment: microbe, parasite or virus in culture; format: cell-based; details: control, A-MLV envelope pseudovirus
MT-2 cells = experiment: Cytotoxicity in MT-2 cells; format: cell-based
[1] = target: HIV-1 reverse transcriptase (RT) (Human immunodeficiency virus type 1 group M subtype B, UniProt P12497); experiment: HIV-1 reverse transcriptase; details: read-out: IC50, HIV-1 reverse transcriptase (RT) assay
TZM-bl cells = experiment: Cytotoxicity in TZM-bl cells; format: cell-based
VSV-G = experiment: microbe, parasite or virus in culture; format: cell-based; details: control, VSV-G envelope pseudovirus
HIV-1 Env pseudoviruses [2] = format: cell-based
U87-CD4-CXCR4 cells = experiment: Cytotoxicity in U87-CD4-CXCR4 cells; format: cell-based
HIV-1ADA = experiment: CD4-dependent CCR5-tropic HIV-1 cell-cell transmission assay; format: cell-based; details: read-out: IC50, CCR5-tropic HIV-1 cell-cell transmission; Ghost X4/R5 and MOLT-4/HIV-1ADA, p24
[3] = tested on: fusion between MAGI-CCR5 and HL 2/3 cells; experiment: HIV-1 cell-cell fusion assay; format: cell-based; details: read-out: IC50, cell-cell fusion assay; MAGI-CCR5 and HL 2/3 cells
[4] = tested on: HIV-1ADA (CCR5-tropic) pseudovirus; experiment: Single-cycle infection assay in U87-CD4-CCR5 cells; details: U87-CD4-CCR5, HIV-1ADA
[5] = tested on: HIV-1HXB2 (CXCR4-tropic) pseudovirus; experiment: Single-cycle infection assay in U87-CD4-CXCR4 cells; details: U87-CD4-CXCR4, HIV-1HXB2
YU2 core gp120 = experiment: SPR: binding of YU2 core gp120 to captured mAb 17b in presence of compounds; parameters: species or system HIV-1; details: sCD4 15-fold excess, compounds 50-fold excess
[6] = tested on: lab-adapted and primary HIV-1 isolates; experiment: microbe, parasite or virus in culture; format: cell-based; details: PBMC
PBMC = experiment: Cytotoxicity in PBMCs; format: cell-based, human
HIV-1 integrase = HIV-1 integrase (Human immunodeficiency virus type 1 group M subtype B, UniProt P04585); experiment: HIV-1 integrase assay; format: biochemical; details: read-out: IC50, HIV-1 integrase assay
HIV-1 Env pseudoviruses [7] = details: data previously published ref 19, cited from earlier work
U87-CD4-CCR5 cells = experiment: Cytotoxicity in U87-CD4-CCR5 cells; format: cell-based
HIV-1IIIB = experiment: CD4-dependent CXCR4-tropic HIV-1 cell-cell transmission assay; format: cell-based; details: read-out: IC50, CXCR4-tropic HIV-1 cell-cell transmission; Ghost X4/R5 and H9/HIV-1IIIB, p24
[8] = tested on: laboratory-adapted HIV-1 strains; experiment: microbe, parasite or virus in culture; format: cell-based

SMILES: CC1(C)CC(NC(=O)C(=O)Nc2ccc(Cl)cc2)CC(C)(C)N1 [NBD-556]
- IC50 (A-MLV): > 60 µM
- CC50 (MT-2 cells): > 280 µM
- IC50 [1]: > 200 µM
- CC50 (TZM-bl cells): ~60 µM
- IC50 (VSV-G): > 60 µM
- IC50 (HIV-1 Env pseudoviruses [2]): 11.5 µM and 9.4 µM
- IC50 (HIV-1 Env pseudoviruses [2]; TZM-bl, HIV-1HXB2): 6.9 ± 0.9 µM
- share of viruses showing sensitivity at ≤3 μM (HIV-1 Env pseudoviruses [2]; panel of 56 HIV-1 Env pseudoviruses): 7%
- IC50 (HIV-1 Env pseudoviruses [2]; subtype A2/D, NIH #11906, QG393.60M.ENV.B7): 3.5 ± 0.2 µM
- IC50 (HIV-1 Env pseudoviruses [2]; subtype A2/D, NIH #11907, QG393.60M.ENV.B8): 3.6 ± 0.1 µM
- IC50 (HIV-1 Env pseudoviruses [2]; subtype A, KNH1144): 20 ± 3.2 µM
- IC50 (HIV-1 Env pseudoviruses [2]; subtype A, NIH #11888, QB726.70M.ENV.C4): 20.2 ± 6 µM
- IC50 (HIV-1 Env pseudoviruses [2]; subtype A, NIH #11889, QB726.70M.ENV.B3): 11.3 ± 2.5 µM
- IC50 (HIV-1 Env pseudoviruses [2]; subtype A, NIH #11890, QF495.23M.ENV.A1): 13.6 ± 2.3 µM
- IC50 (HIV-1 Env pseudoviruses [2]; subtype A, NIH #11891, QF495.23M.ENV.A3): 27.8 ± 9.3 µM
- IC50 (HIV-1 Env pseudoviruses [2]; subtype A, NIH #11892, QF495.23M.ENV.B2): 20.4 ± 7 µM
- IC50 (HIV-1 Env pseudoviruses [2]; subtype A/E, AA058): 4.1 ± 0.8 µM
- IC50 (HIV-1 Env pseudoviruses [2]; subtype A/E, CM244): 5.6 ± 0.8 µM
- IC50 (HIV-1 Env pseudoviruses [2]; subtype A/E, NIH #11603 (potential), CRF01_AE clone 269): 10.7 ± 1.5 µM
- IC50 (HIV-1 Env pseudoviruses [2]; subtype A/G, NIH #11601, CRF02_AG clone 263): 7 ± 2.2 µM
- IC50 (HIV-1 Env pseudoviruses [2]; subtype A/G, NIH #11602, CRF02_AG clone 266): 4.6 ± 1.6 µM
- IC50 (HIV-1 Env pseudoviruses [2]; subtype A/G, NIH #11605, CRF02_AG clone 278): 6.5 ± 1.1 µM
- IC50 (HIV-1 Env pseudoviruses [2]; subtype B, B41): 4.5 ± 2 µM
- IC50 (HIV-1 Env pseudoviruses [2]; subtype B, NIH #11018, QH0692, clone 42): 2 ± 0.6 µM
- IC50 (HIV-1 Env pseudoviruses [2]; subtype B, NIH #11022, PVO, clone 4): 3.5 ± 0.7 µM
- IC50 (HIV-1 Env pseudoviruses [2]; subtype B, NIH #11023, TRO, clone 11): 4.1 ± 0.6 µM
- IC50 (HIV-1 Env pseudoviruses [2]; subtype B, NIH #11033, pWIT04160 clone 33): 4.8 ± 0.8 µM
- IC50 (HIV-1 Env pseudoviruses [2]; subtype B, NIH #11035, PREJ04541 clone 67): 3.4 ± 0.2 µM
- IC50 (HIV-1 Env pseudoviruses [2]; subtype B, NIH #11036, pRHPA4259 clone 7): 4.3 ± 0.5 µM
- IC50 (HIV-1 Env pseudoviruses [2]; subtype B, NIH #11037, PTHR04156 clone 18): 8.4 ± 2.4 µM
- IC50 (HIV-1 Env pseudoviruses [2]; subtype B, NIH #11563, p1058_11.B11.1550, R5X4-tropic): 1.9 ± 1 µM
- IC50 (HIV-1 Env pseudoviruses [2]; subtype C, NIH #11306, Du156, clone 12): 5 ± 0.9 µM
- IC50 (HIV-1 Env pseudoviruses [2]; subtype C, NIH #11307, Du172, clone 17): 4.8 ± 0.2 µM
- IC50 (HIV-1 Env pseudoviruses [2]; subtype C, NIH #11308, Du422, clone 1): 6.1 ± 0.5 µM
- IC50 (HIV-1 Env pseudoviruses [2]; subtype C, NIH #11309, ZM197M.PB7): 3.8 ± 0.3 µM
- IC50 (HIV-1 Env pseudoviruses [2]; subtype C, NIH #11310, ZM214M.PL15): 4.1 ± 0.7 µM
- IC50 (HIV-1 Env pseudoviruses [2]; subtype C, NIH #11311, ZM233M.PB6): 6.6 ± 0.8 µM
- IC50 (HIV-1 Env pseudoviruses [2]; subtype C, NIH #11312, ZM249M.PL1): 6.1 ± 0.3 µM
- IC50 (HIV-1 Env pseudoviruses [2]; subtype C, NIH #11313, ZM53M.PB12): 14.6 ± 1 µM
- IC50 (HIV-1 Env pseudoviruses [2]; subtype C, NIH #11314, ZM109F.PB4): 6.2 ± 0.3 µM
- IC50 (HIV-1 Env pseudoviruses [2]; subtype C, NIH #11315, ZM135M.PL10a): 2.2 ± 0.6 µM
- IC50 (HIV-1 Env pseudoviruses [2]; subtype C, NIH #11316, CAP45.2.00.G3): 9.6 ± 0.3 µM
- IC50 (HIV-1 Env pseudoviruses [2]; subtype C, NIH #11317, CAP210.2.00.E8): 5.3 ± 0.6 µM
- IC50 (HIV-1 Env pseudoviruses [2]; subtype C, NIH #11908, QB099.391 M.ENV.B1): 5.7 ± 0.9 µM
- IC50 (HIV-1 Env pseudoviruses [2]; subtype C, NIH #11909, QB099.391 M.ENV.C8): 3.6 ± 0.9 µM
- IC50 (HIV-1 Env pseudoviruses [2]; subtype C, NIH #11910, QC406.70M.ENV.F3): 3.6 ± 0.9 µM
- IC50 (HIV-1 Env pseudoviruses [2]; subtype D, NIH #11911, QA013.70I.ENV.H1): 9.4 ± 2.6 µM
- IC50 (HIV-1 Env pseudoviruses [2]; subtype D, NIH #11912, QA013.70I.ENV.M12): 5.4 ± 0.3 µM
- IC50 (HIV-1 Env pseudoviruses [2]; subtype D, NIH #11914, QA465.59M.ENV.D1): 6.1 ± 0.5 µM
- IC50 (HIV-1 Env pseudoviruses [2]; subtype D, NIH #11916, QD435.100M.ENV.B5): 4.4 ± 1 µM
- IC50 (HIV-1 Env pseudoviruses [2]; subtype D, NIH #11918, QD435.100M.ENV.E1): 6.2 ± 1.7 µM
- CC50 (U87-CD4-CXCR4 cells): ~60 µM
- IC50 (HIV-1ADA): ~60 µM
- IC50 [3]: 6.5 µM
- IC50 [4]: 7.4 ± 0.8 µM
- IC50 [5]: 9.5 ± 0.6 µM
- enhancement of mAb 17b binding to YU2 core gp120 (in words) (YU2 core gp120): highest enhancement
- IC50 ([6]; laboratory strain 89.6, subtype B, R5X4): 4.8 ± 1 µM
- IC50 ([6]; laboratory strain BaL, subtype B, R5): ≥ 118 µM
- IC50 ([6]; laboratory strain SF162, subtype B, R5): 48.9 ± 7.3 µM
- IC50 ([6]; primary isolate 92US657, subtype B, R5): 48 ± 1.65 µM
- IC50 ([6]; primary isolate 93MW959, subtype C, R5): 57.2 ± 8.7 µM
- IC50 ([6]; primary isolate 93TH060, subtype E, R5): > 45 µM
- IC50 ([6]; primary isolate RU570, subtype G, R5): 19.5 ± 2.3 µM
- CC50 (PBMC): > 280 µM
- IC50 (HIV-1 integrase): > 200 µM
- IC50 (HIV-1 Env pseudoviruses [7]; subtype A, NIH #11887, Q259env.w6): 6.9 ± 0.9 µM
- IC50 (HIV-1 Env pseudoviruses [7]; subtype A/D, NIH #11901, QA790.204I.ENV.A4): 12.3 ± 1.8 µM
- IC50 (HIV-1 Env pseudoviruses [7]; subtype A/D, NIH #11903, QA790.204I.ENV.C8): 5 ± 1 µM
- IC50 (HIV-1 Env pseudoviruses [7]; subtype A/D, NIH #11904, QA790.204I.ENV.E2): 7.1 ± 0.5 µM
- IC50 (HIV-1 Env pseudoviruses [7]; subtype B, NIH #11024, AC10.0, clone 29): 8.9 ± 3 µM
- IC50 (HIV-1 Env pseudoviruses [7]; subtype B, NIH #11038, pCAAN5342 clone A2): 2.4 ± 0.3 µM
- IC50 (HIV-1 Env pseudoviruses [7]; subtype B, NIH #11058, SC422661.8): 4.8 ± 0.4 µM
- IC50 (HIV-1 Env pseudoviruses [7]; subtype B, NIH #11578, pWEAUd15.410.5017, R5X4-tropic): 4.9 ± 0.8 µM
- IC50 (HIV-1 Env pseudoviruses [7]; subtype D, NIH #11913, QA465.59M.ENV.A1): 4.8 ± 0.2 µM
- CC50 (U87-CD4-CCR5 cells): ~60 µM
- IC50 (HIV-1IIIB): ~60 µM
- IC50 ([8]; RT inhibitor-resistant isolate AZT-R, subtype B, MT-2, X4): 58 ± 14.3 µM
- IC50 ([8]; fusion inhibitor-resistant isolate pNL4-3 gp41(36G)V38E,N42S, subtype B, MT-2, X4): 11 ± 0.9 µM
- IC50 ([8]; laboratory strain MN, subtype B, MT-2, X4): 15.9 ± 1.6 µM
- IC50 ([8]; laboratory strain RF, subtype B, MT-2, R5X4): 18.7 ± 1.3 µM
- IC50 ([8]; laboratory strain SF2, subtype B, MT-2, R5X4): ≥ 118 µM
- IC50 ([8]; protease inhibitor-resistant isolate HIV-1RF/L-323-12-3, subtype B, MT-2, X4): < 59 µM

SMILES: Cc1nc(C(NC(=O)c2ccc(-c3ccc(Cl)cc3)[nH]2)C2CCCCN2)sc1CO (stereo not drawn) [NBD-11021A, 5-(4-Chlorophenyl)-N-((5-(hydroxymethyl)-4-methylthiazol-2-yl)-(piperidin-2-yl)methyl)-1H-pyrrole-2-carboxamide]
- IC50 [5]: 3 ± 0.4 µM
- IC50 ([8]; MT-2, HIV-1IIIB): 1.3 ± 0.2 µM

SMILES: Cc1nc(C(NC(=O)c2ccc(-c3ccc(Cl)cc3)[nH]2)C2CCCCN2)sc1CO (stereo not drawn) [NBD-11021B, 5-(4-Chlorophenyl)-N-((5-(hydroxymethyl)-4-methylthiazol-2-yl)-(piperidin-2-yl)methyl)-1H-pyrrole-2-carboxamide]
- IC50 (HIV-1 Env pseudoviruses [2]; TZM-bl, HIV-1HXB2): 2.4 ± 0.1 µM
- IC50 ([8]; Human immunodeficiency virus 1, MT2, MT-2, HIV-1IIIB): 1.8 ± 0.05 µM
